The supplement of paper PMC13380429
± gives the standard deviation of the averaged measurements.

Legend:
Conditions in all cases: 72 h
Caco-2 [1] = assay: cell viability relative to DMSO; higher = less toxic
Calu-3 [2] = assay: as above
HepG2 [3] = assay: as above
U2OS [4] = assay: as above
Vero E6 [5] = assay: as above
Caco-2 [6] = assay: relative viability EC50 (midpoint between 100% and the lowest measured viability); higher = less toxic
Calu-3 [7] = assay: as above
HepG2 [8] = assay: as above
U2OS [9] = assay: as above
Vero E6 [10] = assay: as above
Caco-2 [11] = assay: drug sensitivity score (DSS) for viability; higher = more toxic; extreme values may be limits of the assay
Calu-3 [12] = assay: as above
HepG2 [13] = assay: as above
U2OS [14] = assay: as above
Vero E6 [15] = assay: as above

SMILES	cell viability (Caco-2 [1]; 1 nM) [%]	cell viability (Caco-2 [1]; 10 nM) [%]	cell viability (Caco-2 [1]; 100 nM) [%]	cell viability (Caco-2 [1]; 1000 nM) [%]	cell viability (Caco-2 [1]; 10000 nM) [%]	cell viability (Calu-3 [2]; 1 nM) [%]	cell viability (Calu-3 [2]; 10 nM) [%]	cell viability (Calu-3 [2]; 100 nM) [%]	cell viability (Calu-3 [2]; 1000 nM) [%]	cell viability (Calu-3 [2]; 10000 nM) [%]	cell viability (HepG2 [3]; 1 nM) [%]	cell viability (HepG2 [3]; 10 nM) [%]	cell viability (HepG2 [3]; 100 nM) [%]	cell viability (HepG2 [3]; 1000 nM) [%]	cell viability (HepG2 [3]; 10000 nM) [%]	cell viability (U2OS [4]; 1 nM) [%]	cell viability (U2OS [4]; 10 nM) [%]	cell viability (U2OS [4]; 100 nM) [%]	cell viability (U2OS [4]; 1000 nM) [%]	cell viability (U2OS [4]; 10000 nM) [%]	cell viability (Vero E6 [5]; 1 nM) [%]	cell viability (Vero E6 [5]; 10 nM) [%]	cell viability (Vero E6 [5]; 100 nM) [%]	cell viability (Vero E6 [5]; 1000 nM) [%]	cell viability (Vero E6 [5]; 10000 nM) [%]	relative viability EC50 (Caco-2 [6]) [µM]	relative viability EC50 (Calu-3 [7]) [µM]	relative viability EC50 (HepG2 [8]) [µM]	relative viability EC50 (U2OS [9]) [µM]	relative viability EC50 (Vero E6 [10]) [µM]	drug sensitivity score (Caco-2 [11])	drug sensitivity score (Calu-3 [12])	drug sensitivity score (HepG2 [13])	drug sensitivity score (U2OS [14])	drug sensitivity score (Vero E6 [15])
C#Cc1cnc2nc(O)n(C(CC)CC)c2n1 [tirasemtiv]	90.7	92.8	103	107	103	95.8	98.7	103	95.7	106	102	113	99.4	115	98.5	103	100	101	98.6	98.5	94.8	101	93.4	96.9	106	> 10	> 10	> 10	> 10	> 10	0	0	0	0	0
CCOC(=O)[C@H](CCc1ccccc1)N[C@@H](C)C(=O)N1CCC[C@H]1C(=O)O [enalapril]	92.4	97.1	84.1	102	100	90.5	98.3	92.2	101	91.9	103	95.4	98.4	109	109	97.9	101	99.5	98.6	102	97.2	99.3	98.2	100	107	> 10	> 10	> 10	> 10	> 10	0	0	0	0	0
CC[C@H]1[C@@H](O)[C@@H]2[C@H](CC[C@]3(C)[C@@H]([C@H](C)CCC(=O)O)CC[C@@H]23)[C@@]2(C)CC[C@@H](O)C[C@@H]12 [obeticholic-acid]	98.7 ± 5.8	104 ± 4.4	95 ± 8.5	94.8 ± 1.6	95.5 ± 1.6	106 ± 6.7	100 ± 2.4	105.9 ± 0.57	97.5 ± 6.6	98.2 ± 7.2	100 ± 4.6	102 ± 17	95.5 ± 8.1	103 ± 3.2	104.8 ± 0.14	102	104	96.1	104	99.2	109 ± 20	94.8 ± 3.3	99.8 ± 12	97.3 ± 0.57	103 ± 7.1	> 10	> 10	> 10	> 10	> 10	0.25 ± 0.35	0	0	0	0
Cn1c(COc2ccc(CC3SC(=O)NC3=O)cc2)nc2ccccc2c1=O (stereo not given) [balaglitazone]	91.7	106	90.7	96.4	85.3	95	95	103	103	84.3	88.5	104	85.7	100	99.2	96.4	95	97.3	91.8	92	98.2	94.8	88.6	93.4	101	> 10	> 10	> 10	> 10	> 10	0.1	0.2	0	0	0
C[C@H]1N=C(N(C)C)N=C(N)N1 [imeglimin]	86.3	88	96.2	97.3	97.6	97	114	96.9	104	104	96.4	96.7	97.7	99	100	99.7	105	96.9	102	103	92.5	96.2	92.8	101	105	> 10	> 10	> 10	> 10	> 10	0	0	0	0	0
CC(=O)Nc1ccc(Cc2ccc(NC(C)=O)cc2)cc1 [FH1]	107	100	104	93.7	102	95.7	99.9	84.2	92.8	104	99.5	104	107	102	96.8	98.8	96.6	99.4	104	103	99.8	98.1	96.8	102	98.9	> 10	> 10	> 10	> 10	> 10	0	0	0	0	0
